Values quoted from earlier work in patent publication US9006268B2, “Prolylcarboxypeptidase inhibitors” (Merck Sharp & Dohme Corp., priority 2010, dated 2015).

How the values were obtained:
rats = conditions: intracerebroventricular administration to rats
[1] = test system: obese, leptin deficient mice; conditions: systemic administration to obese
[2] = literature studies of weight loss medications

Row | Compound | overnight food intake (rats) | overnight food intake [1] | weight loss of body weight for drug compared to placebo [2]
1 | t-butyl carbamate-prolyl prolinal [BPP] | suppression of overnight food intake | suppression of overnight food intake | 
2 | CC(C)(N)Cc1ccccc1 [phentermine] |  |  | 5%-10%
3 | CCN[C@@H](C)Cc1cccc(C(F)(F)F)c1 [dexfenfluramine] |  |  | 5%-10%
4 | CC(C)CC(N(C)C)C1(c2ccc(Cl)cc2)CCC1 (stereo not drawn) [sibutramine] |  |  | 5%-10%
5 | CCCCCCCCCCC[C@@H](C[C@@H]1OC(=O)[C@H]1CCCCCC)OC(=O)[C@H](CC(C)C)NC=O [orlistat] |  |  | 5%-10%
